Test results reported in ChEMBL document CHEMBL5113512, “β-Nitrostyrene derivatives as broad range potential antifungal agents targeting fungal cell wall” (2022).
Values after ≈ are worked out from the molar mass of the structure shown. Active and inactive are the calls of the source. The calls are words filed in the database; no cut-off is given here.

Columns and labels:
Candida albicans [1] = assay: Downregulation of ZCF19 gene expression in Candida albicans ATCC 24433 by qRT-PCR analysis; type: functional
Candida albicans [2] = assay: Synergistic antifungal activity against wild type Candida albicans SN152 assessed as inhibition of fungal growth incubated for 48 hrs in presence of fluconazole by checker board assay; type: functional
[Candida] auris [3] = Antifungal activity against Candida auris 105 assessed as inhibition of fungal growth by broth microdilution method; type: functional; conditions: Candidozyma auris
Candida [4] = assay: Downregulation of VPS34 gene expression in Candida cells; type: functional, cell-based
Candida [5] = assay: Downregulation of PGA57 gene expression in Candida cells; type: functional, cell-based
Candida [6] = assay: Upregulation of ARG4 gene expression in Candida cells; type: functional, cell-based
Candida [7] = assay: Upregulation of CPA1 gene expression in Candida cells; type: functional, cell-based
Candida parapsilosis [8] = assay: Synergistic antifungal activity against Candida parapsilosis ATCC 90018 assessed as Calcoflour White MIC incubated for 48 hrs by checker board assay; type: functional; conditions: Lodderomyces parapsilosis
Candida [9] = assay: Downregulation of GIT3 gene expression in Candida cells; type: functional, cell-based
Candida [10] = assay: Downregulation of RBT1 gene expression in Candida cells; type: functional, cell-based
Candida albicans [11] = assay: Antifungal activity against Candida albicans ATCC 24433 overexpressing ADCaMDR1-GFP assessed as inhibition of fungal growth by broth microdilution method; type: functional
Candida albicans [12] = assay: Antifungal activity against Candida albicans ATCC 24433 assessed as inhibition of fungal growth by broth microdilution method; type: functional
Candida [13] = assay: Downregulation of GUT1 gene expression in Candida cells; type: functional, cell-based
Candida [14] = assay: Downregulation of RIO2 gene expression in Candida cells; type: functional, cell-based
Candida parapsilosis [15] = assay: Synergistic antifungal activity against Candida parapsilosis ATCC 90018 assessed as inhibition of fungal growth incubated for 48 hrs in presence of SDS by checker board assay; type: functional; conditions: Lodderomyces parapsilosis
Candida albicans [16] = assay: Antifungal activity against Candida albicans ATCC 24433 overexpressing ADCDR1-GFP assessed as inhibition of fungal growth by broth microdilution method; type: functional
Candida [17] = assay: Upregulation of CPA2 gene expression in Candida cells; type: functional, cell-based
[Candida] auris [18] = Synergistic antifungal activity against Candida auris CBS10913 assessed as fractional inhibitory concentration index incubated for 48 hrs in presence of Calcoflour White by checker board assay; type: functional, Candidozyma auris
Candida albicans [19] = assay: Synergistic antifungal activity against Candida albicans ATCC 24433 assessed as inhibition of fungal growth incubated for 48 hrs in presence of Congo red by checker board assay; type: functional
Candida albicans [20] = assay: Synergistic antifungal activity against Candida albicans SN152 harboring CAS5 mutant assessed as fractional inhibitory concentration index incubated for 48 hrs in presence of Amphotericin B by checker board assay; type: functional
Candida albicans [21] = assay: Antifungal activity against Candida albicans SN152 harboring CAS5 mutant assessed as inhibition of fungal growth by broth microdilution method; type: functional
Candida [22] = assay: Upregulation of PLB5 gene expression in Candida cells; type: functional, cell-based
Candida [23] = assay: Upregulation of ARG2 gene expression in Candida cells; type: functional, cell-based
Candida albicans [24] = assay: Synergistic antifungal activity against wild type Candida albicans SN152 assessed as fluconazole MIC incubated for 48 hrs by checker board assay; type: functional
[Candida] auris [25] = Synergistic antifungal activity against Candida auris CBS10913 assessed as fractional inhibitory concentration index incubated for 48 hrs in presence of SDS by checker board assay; type: functional, Candidozyma auris
Candida [26] = assay: Upregulation of LSC1 gene expression in Candida cells; type: functional, cell-based
Candida [27] = assay: Upregulation of LSC2 gene expression in Candida cells; type: functional, cell-based
Candida [28] = assay: Downregulation of CLN3 gene expression in Candida cells; type: functional, cell-based
Candida [29] = assay: Downregulation of CCT3 gene expression in Candida cells; type: functional, cell-based
Candida albicans [30] = assay: Synergistic antifungal activity against wild type Candida albicans SN152 assessed as inhibition of fungal growth incubated for 48 hrs in presence of Caspofungin by checker board assay; type: functional
Candida parapsilosis [31] = assay: Antifungal activity against Candida parapsilosis ATCC 90018 assessed as inhibition of fungal growth by broth microdilution method; type: functional; conditions: Lodderomyces parapsilosis
[Candida] auris [32] = Induction of ROS generation in Candida auris CBS10913 assessed as increase in relative fluorescence unit at sub-inhibitory concentration incubated for 1 hr by DCFDA staining-based flow cytometric analysis; type: functional, organism-based; conditions: Candidozyma auris
Candida [33] = assay: Downregulation of VTC3 gene expression in Candida cells; type: functional, cell-based
Candida albicans [34] = assay: Synergistic antifungal activity against Candida albicans ATCC 24433 assessed as SDS MIC incubated for 48 hrs by checker board assay; type: functional
Candida albicans [35] = assay: Synergistic antifungal activity against Candida albicans SN152 harboring CAS5 mutant assessed as inhibition of fungal growth incubated for 48 hrs in presence of Caspofungin by checker board assay; type: functional
Candida albicans [36] = assay: Synergistic antifungal activity against Candida albicans SN152 harboring CAS5 mutant assessed as fractional inhibitory concentration index incubated for 48 hrs in presence of fluconazole by checker board assay; type: functional
[Candida] auris [37] = Synergistic antifungal activity against Candida auris CBS10913 assessed as inhibition of fungal growth incubated for 48 hrs in presence of Congo red by checker board assay; type: functional; conditions: Candidozyma auris
Candida albicans [38] = assay: Inhibition of drug efflux in Candida albicans ATCC 24433 overexpressing ADCaMDR1-GF assessed as […] in nile red efflux incubated for 30 mins by flow cytometry; type: functional
Candidozyma auris = assay: Upregulation of CaPHO15 gene expression in Candida auris CBS10913 assessed as increase in glycerol content at sub-inhibitory concentration incubated for 2 hrs; type: functional
Candida albicans [39] = assay: Synergistic antifungal activity against Candida albicans SN152 harboring CAS5 mutant assessed as fractional inhibitory concentration index incubated for 48 hrs in presence of Caspofungin by checker board assay; type: functional
Candida parapsilosis [40] = assay: Synergistic antifungal activity against Candida parapsilosis ATCC 90018 assessed as fractional inhibitory concentration index incubated for 48 hrs in presence of Calcoflour White by checker board assay; type: functional
Candida albicans [41] = assay: Upregulation of CaPHO15 gene expression in Candida albicans ATCC 24433 assessed as increase in glycerol content at sub-inhibitory concentration incubated for 2 hrs; type: functional
Cell membrane = assay: Disruption of membrane integrity in Candida albicans ATCC 24433 assessed as cell surface perturbations measured after 3 hrs by SEM analysis
Candida albicans [42] = assay: Synergistic antifungal activity against Candida albicans SN152 harboring CAS5 mutant assessed as inhibition of fungal growth incubated for 48 hrs in presence of Amphotericin B by checker board assay; type: functional
Candida [43] = assay: Downregulation of CMP1 gene expression in Candida cells; type: functional, cell-based
Candida albicans [44] = assay: Synergistic antifungal activity against Candida albicans ATCC 24433 assessed as inhibition of fungal growth incubated for 48 hrs in presence of SDS by checker board assay; type: functional
[Candida] auris [45] = Antifungal activity against Candida auris 118 assessed as inhibition of fungal growth by broth microdilution method; type: functional; conditions: Candidozyma auris
Candida albicans [46] = assay: Induction of ROS generation in Candida albicans ATCC 24433 assessed as increase in relative fluorescence unit at sub-inhibitory concentration incubated for 1 hr by DCFDA staining-based flow cytometric analysis; type: functional, organism-based
Candida albicans [47] = assay: Synergistic antifungal activity against Candida albicans SN152 harboring CAS5 mutant assessed as fluconazole MIC incubated for 48 hrs by checker board assay; type: functional
Candida albicans [48] = assay: Synergistic antifungal activity against Candida albicans SN152 harboring CAS5 mutant assessed as Caspofungin MIC incubated for 48 hrs by checker board assay; type: functional

O=[N+]([O-])/C=C/c1ccc(O)cc1
Activity (Candida albicans [1]): Active | MIC (Candida albicans [2]): 0.0039 µg/mL | MIC80 ([Candida] auris [3]): 2 µg/mL (≈ 12.1 µM) | Activity (Candida [4]): Active | Activity (Candida [5]): Active | Activity (Candida [6]): Active | Activity (Candida [7]): Active | MIC (Candida parapsilosis [8]): 25 µg/mL | Activity (Candida [9]): Active | Activity (Candida [10]): Active | MIC80 (Candida albicans [11]): 4 µg/mL (≈ 24.2 µM) | MIC80 (Candida albicans [12]): 4 µg/mL (≈ 24.2 µM) | Activity (Candida [13]): Active | Activity (Candida [14]): Active | MIC (Candida parapsilosis [15]): 1 µg/mL | MIC80 (Candida albicans [16]): 4 µg/mL (≈ 24.2 µM) | Activity (Candida [17]): Active | fractional inhibitory concentration index (FICI) ([Candida] auris [18]): 0.625 | MIC (Candida albicans [19]): 0.5 µg/mL | fractional inhibitory concentration index (FICI) (Candida albicans [20]): 0.515 | MIC80 (Candida albicans [21]): 2 µg/mL (≈ 12.1 µM) | Activity (Candida [22]): Active | Activity (Candida [23]): Active | MIC (Candida albicans [24]): 0.25 µg/mL | fractional inhibitory concentration index (FICI) ([Candida] auris [25]): 0.5 | Activity (Candida [26]): Active | Activity (Candida [27]): Active | Activity (Candida [28]): Active | Activity (Candida [29]): Active | MIC (Candida albicans [30]): 0.0625 µg/mL | MIC80 (Candida parapsilosis [31]): 8 µg/mL (≈ 48.4 µM) | Activity ([Candida] auris [32]): Active | Activity (Candida [33]): Active | MIC (Candida albicans [34]): 12.5 µg/mL | MIC (Candida albicans [35]): 0.0019 µg/mL | fractional inhibitory concentration index (FICI) (Candida albicans [36]): 0.126 | MIC ([Candida] auris [37]): 0.125 µg/mL | inhibition (Candida albicans [38]): Active | Activity (Candidozyma auris): Active | fractional inhibitory concentration index (FICI) (Candida albicans [39]): 0.5 | fractional inhibitory concentration index (FICI) (Candida parapsilosis [40]): 0.5 | Activity (Candida albicans [41]): Active | Activity (Cell membrane): Active | MIC (Candida albicans [42]): 0.0312 µg/mL | Activity (Candida [43]): Active | MIC (Candida albicans [44]): 1 µg/mL | MIC80 ([Candida] auris [45]): 4 µg/mL (≈ 24.2 µM) | Activity (Candida albicans [46]): Active | MIC (Candida albicans [47]): 0.125 µg/mL | MIC (Candida albicans [48]): 0.0078 µg/mL
